Test results reported in US20230041743A1, “1,8-NAPHTHYRIDIN-2-ONE COMPOUNDS FOR THE TREATMENT OF AUTOIMMUNE DISEASE” (Hoffmann-La Roche Inc., priority 2019, published 2023).

Each molecule was assayed against T1, human TLR9 (Homo sapiens, UniProt Q9NR96) (assay: HEK293-Blue-hTLR-9 cells assay (SEAP reporter, ODN2006 stimulation)). Conditions: HEK293-Blue-hTLR9 cells, ODN2006 ligand, 20 hrs incubation; read-out: HEK/hTLR9 IC50.
T1 construct: host or cells: HEK293 (HEK-Blue hTLR9)
T1 sequence (Q9NR96 26-1032): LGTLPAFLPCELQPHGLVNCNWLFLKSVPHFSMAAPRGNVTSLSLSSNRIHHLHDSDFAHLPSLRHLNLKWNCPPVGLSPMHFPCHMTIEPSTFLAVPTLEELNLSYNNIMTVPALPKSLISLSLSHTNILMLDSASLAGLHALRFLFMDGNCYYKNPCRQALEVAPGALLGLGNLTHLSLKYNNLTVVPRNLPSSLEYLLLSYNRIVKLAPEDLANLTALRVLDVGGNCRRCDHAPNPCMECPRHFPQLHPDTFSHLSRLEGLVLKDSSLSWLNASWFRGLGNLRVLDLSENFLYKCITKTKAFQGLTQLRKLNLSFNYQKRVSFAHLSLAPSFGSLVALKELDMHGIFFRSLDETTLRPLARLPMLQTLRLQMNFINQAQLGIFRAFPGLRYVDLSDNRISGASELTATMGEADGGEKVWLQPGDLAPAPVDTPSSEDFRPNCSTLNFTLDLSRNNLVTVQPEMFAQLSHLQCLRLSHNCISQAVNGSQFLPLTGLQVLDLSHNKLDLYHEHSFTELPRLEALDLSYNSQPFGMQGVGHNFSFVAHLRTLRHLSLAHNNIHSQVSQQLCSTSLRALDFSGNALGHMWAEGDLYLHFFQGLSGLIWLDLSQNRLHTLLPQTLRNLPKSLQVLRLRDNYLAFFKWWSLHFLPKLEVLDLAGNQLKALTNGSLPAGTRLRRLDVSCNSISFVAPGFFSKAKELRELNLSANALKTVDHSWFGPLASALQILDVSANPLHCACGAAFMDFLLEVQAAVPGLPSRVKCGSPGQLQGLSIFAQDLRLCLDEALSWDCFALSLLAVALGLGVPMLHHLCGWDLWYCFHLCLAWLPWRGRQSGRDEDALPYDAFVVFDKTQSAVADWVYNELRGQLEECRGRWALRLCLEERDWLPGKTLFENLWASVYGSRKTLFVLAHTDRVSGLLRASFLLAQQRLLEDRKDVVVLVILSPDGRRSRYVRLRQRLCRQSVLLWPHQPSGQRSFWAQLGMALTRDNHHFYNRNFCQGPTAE
Type: cell-based
Source text: HEK293-Blue-hTLR-9 Cells Assay:
A stable HEK293-Blue-hTLR-9 cell line was purchased from InvivoGen (Cat. #: hkb-htlr9, San Diego, Calif., USA). These cells were originally designed for studying the stimulation of human TLR9 by monitoring the activation of NF-κB. A SEAP (secreted embryonic alkaline phosphatase) reporter gene was placed under the control of the IFN-β minimal promoter fused to five NF-κB and AP-1-binding sites. The SEAP was induced by activating NF-κB and AP-1 via stimulating HEK-Blue hTLR9 cells with TLR9 ligands. Therefore the reporter expression was declined by TLR9 antagonist under the stimulation of a ligand, such as ODN2006 (Cat. #: tlrl-2006-1, Invivogen, San Diego, Calif., USA), for incubation of 20 hrs. The cell culture supernatant SEAP reporter activity was determined using QUANTI-Blue™ kit (Cat. #: rep-qb1, Invivogen, San Diego, Calif., USA) at a wavelength of 640 nm, a detection medium that turns purple or blue in the presence of alkaline phosphatase.
HEK293-Blue-hTLR9 cells were incubated at a density of 250,000˜450,000 cells/mL in a volume of 170 μL in a 96-well plate in Dulbecco's Modified Eagle's medium (DMEM) containing 4.5 g/L glucose, 50 U/mL penicillin, […], 2 mM L-glutamine, 10% (v/v) heat-inactivated fetal bovine serum with addition of 20 μL test compound in a serial dilution in the presence of final DMSO at 1% and 10 μL of 20 uM ODN2006 in above DMEM, perform incubation under 37° C. in a CO2 incubator for 20 hrs. Then 20 μL of the supernatant from each well was incubated with 180 μL Quanti-blue substrate solution at 37° C. for 2 h and the absorbance was read at 620˜655 nm using a spectrophotometer. The signaling pathway that TLR9 activation leads to downstream NF-κB activation has been widely accepted, and therefore similar reporter assay was modified for evaluating TLR9 antagonist.

IC50 [nM] | Structure (SMILES)
192 | C[C@@H]1CN(c2cc(=O)n(C)c3ncccc23)C[C@@H]2c3ccc(N4CCNCC4)cc3CN12 [Example 12, 4-[(4R,10bS)-4-methyl-8-piperazin-1-yl-3,4,6,10b-tetrahydro-1H-pyrazino[2,1-a]isoindol-2-yl]-1-methyl-1,8-naphthyridin-2-one]
136 | C[C@@H]1CN(c2cc(=O)n(C)c3ncccc23)C[C@@H]2c3ccc(N4CC5(CN(C)C5)C4)cc3CN12 [Example 2, 4-[(4R,10bS)-4-methyl-8-(6-methyl-2,6-diazaspiro[3.3]heptan-2-yl)-3,4,6,10b-tetrahydro-1H-pyrazino[2,1-a]isoindol-2-yl]-1-methyl-1,8-naphthyridin-2-one]
105 | C[C@@H]1CN(c2cc(=O)n(C)c3ncccc23)C[C@@H]2c3ccc([C@H]4CC[C@@H](N5CCOCC5)CC4)cc3CN12 [Example 27B, 4-[(4R,10bS)-4-methyl-8-(cis-4-morpholinocyclohexyl)-3,4,6,10b-tetrahydro-1H-pyrazino[2,1-a]isoindol-2-yl]-1-methyl-1,8-naphthyridin-2-one]
124 | C[C@@H]1CN(c2cc(=O)n(C)c3ncccc23)C[C@@H]2c3ccc(C4CCCNC4)cc3CN12 (stereo partly drawn) [Example 25, 4-[(4R,10bS)-4-methyl-8-(3-piperidyl)-3,4,6,10b-tetrahydro-1H-pyrazino[2,1-a]isoindol-2-yl]-1-methyl-1,8-naphthyridin-2-one]
144 | C[C@@H]1CN(c2ccc3c(c2)CN2[C@H](C)CN(c4cc(=O)n(C)c5ncccc45)C[C@H]32)CCN1 [Example 14, 4-[(4R,10bS)-4-methyl-8-[(3R)-3-methylpiperazin-1-yl]-3,4,6,10b-tetrahydro-1H-pyrazino[2,1-a]isoindol-2-yl]-1-methyl-1,8-naphthyridin-2-one]
213 | C[C@@H]1CN(c2cc(=O)n(C)c3ncccc23)C[C@@H]2c3ccc(OCCN(C)C)cc3CN12 [Example 23, 4-[(4R,10bS)-8-[2-(dimethylamino)ethoxy]-4-methyl-3,4,6,10b-tetrahydro-1H-pyrazino[2,1-a]isoindol-2-yl]-1-methyl-1,8-naphthyridin-2-one]
84 | C[C@@H]1CN(c2cc(=O)n(C)c3ncccc23)C[C@@H]2c3ccc(N4CCC[C@](C)(N)C4)cc3CN12 [Example 15, 4-[(4R,10bS)-8-[(3S)-3-amino-3-methyl-1-piperidyl]-4-methyl-3,4,6,10b-tetrahydro-1H-pyrazino[2,1-a]isoindol-2-yl]-1-methyl-1,8-naphthyridin-2-one]
88 | C[C@@H]1CN(c2cc(=O)n(C)c3ncccc23)C[C@@H]2c3ccc(N4CCOC5(CNC5)C4)cc3CN12 [Example 11, 4-[(4R,10bS)-4-methyl-8-(5-oxa-2,8-diazaspiro[3.5]nonan-8-yl)-3,4,6,10b-tetrahydro-1H-pyrazino[2,1-a]isoindol-2-yl]-1-methyl-1,8-naphthyridin-2-one]
101 | C[C@@H]1CN(c2cc(=O)n(C)c3ncccc23)C[C@@H]2c3ccc(N4CCC[C@@H](N)C4)cc3CN12 [Example 16, 4-[(4R,10bS)-8-[(3R)-3-amino-1-piperidyl]-4-methyl-3,4,6,10b-tetrahydro-1H-pyrazino[2,1-a]isoindol-2-yl]-1-methyl-1,8-naphthyridin-2-one]
96 | C[C@@H]1CN(c2cc(=O)n(C)c3ncccc23)C[C@@H]2c3ccc(N4C[C@H]5C[C@@H]4CN5)cc3CN12 [Example 20, 4-[(4R,10bS)-8-[(1R,4R)-2,5-diazabicyclo[2.2.1]heptan-2-yl]-4-methyl-3,4,6,10b-tetrahydro-1H-pyrazino[2,1-a]isoindol-2-yl]-1-methyl-1,8-naphthyridin-2-one]
257 | CO[C@@H]1CN(c2ccc3c(c2)CN2[C@H](C)CN(c4cc(=O)n(C)c5ncccc45)C[C@H]32)C[C@H]1N [Example 5, 4-[(4R,10bS)-8-[(3R,4R)-3-amino-4-methoxy-pyrrolidin-1-yl]-4-methyl-3,4,6,10b-tetrahydro-1H-pyrazino[2,1-a]isoindol-2-yl]-1-methyl-1,8-naphthyridin-2-one]
226 | CO[C@H]1CN(c2ccc3c(c2)CN2[C@H](C)CN(c4cc(=O)n(C)c5ncccc45)C[C@H]32)CC[C@@H]1N [Example 8, 4-[(4R,10bS)-8-[(3S,4S)-4-amino-3-methoxy-1-piperidyl]-4-methyl-3,4,6,10b-tetrahydro-1H-pyrazino[2,1-a]isoindol-2-yl]-1-methyl-1,8-naphthyridin-2-one]
